We go through one molecule from patent US8741963B2, “S1P receptor modulators for treating multiple sclerosis” (Novartis AG, priority 2006, dated 2014).

The assay relates to Relapsing Experimental Autoimmune Encephalomyelitis (EAE). Description: Relapsing Experimental Autoimmune Encephalomyelitis (EAE), vascular casts quantitated by micro computer tomography. Conditions: rat relapsing EAE. The class given is in vivo, female Lewis rats. An excerpt: In Vivo: Relapsing Experimental Autoimmune Encephalomyelitis (EAE)
Disease is induced in female Lewis rats by immunization with guinea pig spinal cord tissue emulsified in complete Freund's adjuvant. […] On day 26 rats are thoracectomized after having been deeply anesthetized with Isoflurane (3%, 20 L/min) and perfused through the left ventricle of the heart. The left ventricle is punctured with a 19 gauge needle from a winged infusion set (SV-19BLK; Termudo, Elkton, Md.), which is connected to an airtight pressurized syringe containing the rinsing solution (NaCl 0.9% with 250,000 U/I heparin at 35° C.). The right atrium is punctured to provide outflow, and the perfusate is infused under a precise controlled pressure of 120 mm Hg. The perfusion is continued for 5 min (at a constant rate of 20 ml/min) followed by a pre-fixation solution (2% performaldehyde in PBS at 35° C.). Finally, up to 30 ml of polyurethane resin (PUII4; Vasqtec, Zürich, Switzerland) is infused at the same rate. After 48 h, the resin-filled brain and spinal cord are excised from the animal and the soft tissue removed by maceration in 7.5% KOH during 24 hr at 50° C. The casts are then thoroughly cleaned with and stored in distilled water before drying by lyophilization. These vascular casts are quantitated using micro computer tomography.

The mark [1] stands for this setting: hydrochloride salt form, daily 0.3 mg/kg p.o.

Turning to `CCCCCCCCc1ccc(CCC(N)(CO)CO)cc1.Cl` [Compound A, 2-amino-2-[2-(4-octylphenyl)ethyl]propane-1,3-diol], where the note is “dose of from 0.1 to 20 mg/kg p.o.”, the disease-associated neo-angiogenesis entry was “significantly blocks”. Also, under setting [1], the disease-associated angiogenesis entry is reported as “fully blocks” and the relapse phases entry is reported as “completely inhibits”. Further, the “effect on disease-associated angiogenesis and relapse phases, intermittent administration” value (hydrochloride salt form, p.o. 0.3 mg/kg every 2nd or 3rd day or once a week) is recorded as “The same effect is obtained”.
